{"source": "paper PMC5218480", "about": "(PLoS ONE, 2017)", "system": "MV-4-11 cells", "experiment": "Gene expression microarray analysis (Affymetrix PrimeView) and GSEA", "type": "cell-based, human", "design": "RFU PODN (11730768_x_at) / Fold change /veh PODN (11730768_x_at) / RFU LINC00158 (11744669_a_at) / Fold change /veh LINC00158 (11744669_a_at) / RFU DUSP10 (11751237_a_at) / Fold change /veh DUSP10 (11751237_a_at) / RFU ID3 (11757404_x_at) / Fold change /veh ID3 (11757404_x_at) / RFU PLEKHG5 (11737974_s_at) / Fold change /veh PLEKHG5 (11737974_s_at) / RFU LRRC4B (11730491_at) / Fold change /veh LRRC4B (11730491_at) / RFU GIMAP4 (11747438_a_at) / Fold change /veh GIMAP4 (11747438_a_at) / RFU KRT8 (11758183_x_at) / Fold change /veh KRT8 (11758183_x_at) / RFU CNN1 (11734310_a_at) / Fold change /veh CNN1 (11734310_a_at) / RFU VPS37D (11726825_at) / Fold change /veh VPS37D (11726825_at) / RFU C10orf10 (11716522_x_at) / Fold change /veh C10orf10 (11716522_x_at) / RFU KIR2DL2 /// KIR2DL4 /// KIR2DL5A /// KIR2DL5B /// KIR2DS1 /// KIR2DS2 /// KIR2DS3 /// KIR2DS4 /// KIR3DL3 /// KIR3DL3 /// KIR3DS1 (11738374_at) / Fold change /veh KIR2DL2 /// KIR2DL4 /// KIR2DL5A /// KIR2DL5B /// KIR2DS1 /// KIR2DS2 /// KIR2DS3 /// KIR2DS4 /// KIR3DL3 /// KIR3DL3 /// KIR3DS1 (11738374_at) / RFU C1QL1 (11718748_at) / Fold change /veh C1QL1 (11718748_at) / RFU TMPRSS4 (11747572_a_at) / Fold change /veh TMPRSS4 (11747572_a_at) / RFU HAMP (11756126_x_at) / Fold change /veh HAMP (11756126_x_at) / RFU RNFT2 (11725882_a_at) / Fold change /veh RNFT2 (11725882_a_at) / RFU NR4A2 (11747474_a_at) / Fold change /veh NR4A2 (11747474_a_at) / RFU ABCC12 (11746883_a_at) / Fold change /veh ABCC12 (11746883_a_at) / RFU TMEM136 (11760407_x_at) / Fold change /veh TMEM136 (11760407_x_at) / RFU CLDN22 /// WWC2 (11732394_at) / Fold change /veh CLDN22 /// WWC2 (11732394_at) / RFU HLA-DPB1 (11760878_x_at) / Fold change /veh HLA-DPB1 (11760878_x_at) / RFU SPINT1 (11716480_a_at) / Fold change /veh SPINT1 (11716480_a_at) / RFU GAP43 (11754022_s_at) / Fold change /veh GAP43 (11754022_s_at) / RFU A4GNT (11735810_at) / Fold change /veh A4GNT (11735810_at) / RFU PRB3 (11715151_x_at) / Fold change /veh PRB3 (11715151_x_at) / RFU TUBB4B (11761932_at) / Fold change /veh TUBB4B (11761932_at) / RFU CAPN14 (11732068_a_at) / Fold change /veh CAPN14 (11732068_a_at) / RFU TMCC2 (11721928_a_at) / Fold change /veh TMCC2 (11721928_a_at) / RFU IRGQ (11745062_a_at) / Fold change /veh IRGQ (11745062_a_at) / RFU FAM174B (11720279_a_at) / Fold change /veh FAM174B (11720279_a_at) / RFU TMPRSS4 (11748680_a_at) / Fold change /veh TMPRSS4 (11748680_a_at) / RFU FAM212B (11763350_a_at) / Fold change /veh FAM212B (11763350_a_at) / RFU PLEKHG5 (11743358_a_at) / Fold change /veh PLEKHG5 (11743358_a_at) / RFU ZSCAN30 (11745921_a_at) / Fold change /veh ZSCAN30 (11745921_a_at) / RFU CMKLR1 (11741424_a_at) / Fold change /veh CMKLR1 (11741424_a_at) / RFU LOC101060620 /// MAPK8IP1 (11723275_at) / Fold change /veh LOC101060620 /// MAPK8IP1 (11723275_at) / RFU SPTSSB (11747773_x_at) / Fold change /veh SPTSSB (11747773_x_at) / RFU PRSS12 (11739890_at) / Fold change /veh PRSS12 (11739890_at) / RFU BIN1 (11741810_x_at) / Fold change /veh BIN1 (11741810_x_at) / RFU WNT11 (11732464_a_at) / Fold change /veh WNT11 (11732464_a_at) / RFU C10orf10 (11716521_a_at) / Fold change /veh C10orf10 (11716521_a_at) / RFU C5orf56 (11738089_at) / Fold change /veh C5orf56 (11738089_at) / RFU CYB561 (11721691_x_at) / Fold change /veh CYB561 (11721691_x_at) / RFU ANKRD19P (11752326_a_at) / Fold change /veh ANKRD19P (11752326_a_at) / RFU OR2T12 /// OR2T33 /// OR2T8 (11738714_s_at) / Fold change /veh OR2T12 /// OR2T33 /// OR2T8 (11738714_s_at) / RFU VCAN (11748164_a_at) / Fold change /veh VCAN (11748164_a_at) / RFU JSRP1 (11732532_at) / Fold change /veh JSRP1 (11732532_at) / RFU KRTAP10-11 (11738290_x_at) / Fold change /veh KRTAP10-11 (11738290_x_at) / RFU MYO3A (11730013_a_at) / Fold change /veh MYO3A (11730013_a_at) / RFU EBF3 (11725865_a_at) / Fold change /veh EBF3 (11725865_a_at) / RFU CAMK2N1 (11719241_x_at) / Fold change /veh CAMK2N1 (11719241_x_at) / RFU C5orf56 (11738088_a_at) / Fold change /veh C5orf56 (11738088_a_at) / RFU OLFML3 (11715873_a_at) / Fold change /veh OLFML3 (11715873_a_at) / RFU LOC100653217 /// NTM (11731650_a_at) / Fold change /veh LOC100653217 /// NTM (11731650_a_at) / RFU MAPK11 (11762145_a_at) / Fold change /veh MAPK11 (11762145_a_at) / RFU FIZ1 (11724087_x_at) / Fold change /veh FIZ1 (11724087_x_at) / RFU OASL (11726364_x_at) / Fold change /veh OASL (11726364_x_at) / RFU SOX15 (11748057_x_at) / Fold change /veh SOX15 (11748057_x_at) / RFU CD79A (11719716_a_at) / Fold change /veh CD79A (11719716_a_at) / RFU HIST1H1D (11736915_at) / Fold change /veh HIST1H1D (11736915_at) / RFU CASKIN2 (11723855_a_at) / Fold change /veh CASKIN2 (11723855_a_at) / RFU LOC730098 (11760151_x_at) / Fold change /veh LOC730098 (11760151_x_at) / RFU OR4N2 (11742367_at) / Fold change /veh OR4N2 (11742367_at) / RFU PRRT2 (11749266_a_at) / Fold change /veh PRRT2 (11749266_a_at) / RFU SNX32 (11753110_a_at) / Fold change /veh SNX32 (11753110_a_at) / RFU CDHR5 (11726645_a_at) / Fold change /veh CDHR5 (11726645_a_at) / RFU RCAN1 (11760418_a_at) / Fold change /veh RCAN1 (11760418_a_at) / RFU FAM167A (11723789_a_at) / Fold change /veh FAM167A (11723789_a_at) / RFU FAM26E (11764081_at) / Fold change /veh FAM26E (11764081_at) / RFU ISYNA1 (11749810_s_at) / Fold change /veh ISYNA1 (11749810_s_at) / RFU ACY1 (11761880_at) / Fold change /veh ACY1 (11761880_at) / RFU 11764098_at / Fold change /veh 11764098_at / RFU SAMD14 (11745864_x_at) / Fold change /veh SAMD14 (11745864_x_at) / RFU NPB (11741838_a_at) / Fold change /veh NPB (11741838_a_at) / RFU TMPRSS6 (11731388_a_at) / Fold change /veh TMPRSS6 (11731388_a_at) / RFU KRTAP10-2 (11738614_at) / Fold change /veh KRTAP10-2 (11738614_at) / RFU ARHGAP8 /// PRR5-ARHGAP8 (11727945_x_at) / Fold change /veh ARHGAP8 /// PRR5-ARHGAP8 (11727945_x_at) / RFU KRTAP5-7 /// NADSYN1 (11734609_at) / Fold change /veh KRTAP5-7 /// NADSYN1 (11734609_at) / RFU RASL12 (11751679_a_at) / Fold change /veh RASL12 (11751679_a_at) / RFU CDKN2B (11736163_a_at) / Fold change /veh CDKN2B (11736163_a_at) / RFU PRF1 (11729649_at) / Fold change /veh PRF1 (11729649_at) / RFU, ZNF638 /// ZNF638-IT1 / Fold change vs veh, ZNF638 /// ZNF638-IT1 / RFU, PANK3 / Fold change vs veh, PANK3 / RFU, SH3YL1 / Fold change vs veh, SH3YL1 / RFU, ZEB2 / Fold change vs veh, ZEB2 / RFU, NRIP1 / Fold change vs veh, NRIP1 / RFU, PTTG1IP / Fold change vs veh, PTTG1IP / RFU, CAPN2 / Fold change vs veh, CAPN2 / RFU, MED14 / Fold change vs veh, MED14 / RFU, SNORA58 / Fold change vs veh, SNORA58 / RFU, C1orf63 / Fold change vs veh, C1orf63 / RFU, LRRFIP1 / Fold change vs veh, LRRFIP1 / RFU, NDUFAF7 / Fold change vs veh, NDUFAF7 / RFU, SLC12A2 / Fold change vs veh, SLC12A2 / RFU, IBTK / Fold change vs veh, IBTK / RFU, ESF1 / Fold change vs veh, ESF1 / Fold change vs veh, TMEM50B / RFU, TAOK1 / Fold change vs veh, TAOK1 / RFU, ACBD3 / Fold change vs veh, ACBD3 / RFU, TMA16 / Fold change vs veh, TMA16 / RFU, RWDD3 / Fold change vs veh, RWDD3 / RFU, BCAT1 / Fold change vs veh, BCAT1 / RFU, EDEM3 / Fold change vs veh, EDEM3 / RFU, TMEM33 / Fold change vs veh, TMEM33 / RFU, WDR75 / Fold change vs veh, WDR75 / RFU, AHCTF1 / Fold change vs veh, AHCTF1 / RFU, TFRC / Fold change vs veh, TFRC / RFU, ZDHHC17 / Fold change vs veh, ZDHHC17 / RFU, NOM1 / Fold change vs veh, NOM1 / RFU, ARL8B / Fold change vs veh, ARL8B / RFU, ZBTB11 / Fold change vs veh, ZBTB11 / RFU, TAMM41 / Fold change vs veh, TAMM41 / RFU, KIAA1704 /// LOC100996395 / Fold change vs veh, KIAA1704 /// LOC100996395 / RFU, ING1 / Fold change vs veh, ING1 / RFU, TRMT61B / Fold change vs veh, TRMT61B / RFU, FUBP3 / Fold change vs veh, FUBP3 / RFU, TP53 / Fold change vs veh, TP53 / RFU, TNKS2 / Fold change vs veh, TNKS2 / RFU, ZFP14 / Fold change vs veh, ZFP14 / RFU, ACTR2 / Fold change vs veh, ACTR2 / RFU, PPP3R1 / Fold change vs veh, PPP3R1 / RFU, PIK3R1 / Fold change vs veh, PIK3R1 / RFU, HNRNPA1 / Fold change vs veh, HNRNPA1 / RFU, RNF170 / Fold change vs veh, RNF170 / RFU, ZNF28 / Fold change vs veh, ZNF28 / RFU, RNGTT / Fold change vs veh, RNGTT / RFU, OGT / Fold change vs veh, OGT / RFU, BRD1 / Fold change vs veh, BRD1 / RFU, MARS / Fold change vs veh, MARS / RFU, ZNF655 / Fold change vs veh, ZNF655 / RFU, FAHD1 / Fold change vs veh, FAHD1 / RFU, BDP1 / Fold change vs veh, BDP1 / RFU, LRRCC1 / Fold change vs veh, LRRCC1 / RFU, ARID1A / Fold change vs veh, ARID1A / RFU, ZNF146 / Fold change vs veh, ZNF146 / RFU, ZNF330 / Fold change vs veh, ZNF330 / RFU, GPN3 / Fold change vs veh, GPN3 / RFU, C9orf123 / Fold change vs veh, C9orf123 / RFU, N4BP2L2 / Fold change vs veh, N4BP2L2 / RFU, ARFIP1 / Fold change vs veh, ARFIP1 / RFU, FAM179B / Fold change vs veh, FAM179B / RFU, BCL10 / Fold change vs veh, BCL10 / RFU, UHRF1BP1L / Fold change vs veh, UHRF1BP1L / RFU, BET1 / Fold change vs veh, BET1 / RFU, CNOT2 / Fold change vs veh, CNOT2 / RFU, ZNF268 / Fold change vs veh, ZNF268 / Fold change vs veh, ZNF507 / RFU, DGCR2 / Fold change vs veh, DGCR2 / RFU, WDSUB1 / Fold change vs veh, WDSUB1 / Fold change vs veh, HSP90B1 /// MIR3652 / RFU, ADSS / Fold change vs veh, ADSS / RFU, GK / Fold change vs veh, GK / RFU, ZNF148 / Fold change vs veh, ZNF148 / RFU, TAF9 / Fold change vs veh, TAF9 / RFU, SLC1A5 / Fold change vs veh, SLC1A5 / RFU, SLMO2 / Fold change vs veh, SLMO2 / RFU, ABCC4 / Fold change vs veh, ABCC4 / RFU, LOC101060439 /// RAP1B / Fold change vs veh, LOC101060439 /// RAP1B / RFU, RFX7 / Fold change vs veh, RFX7 / RFU, GTPBP10 / Fold change vs veh, GTPBP10 / RFU, CNEP1R1 / Fold change vs veh, CNEP1R1 / RFU, BIVM-ERCC5 /// ERCC5 / Fold change vs veh, BIVM-ERCC5 /// ERCC5 / RFU, ILF3 / Fold change vs veh, ILF3 / RFU 11762660_at / Fold change /veh 11762660_at / RFU VCAN (11757783_s_at) / Fold change /veh VCAN (11757783_s_at) / RFU DDX43 (11728927_at) / Fold change /veh DDX43 (11728927_at) / RFU KRT8 (11758188_x_at) / Fold change /veh KRT8 (11758188_x_at) / RFU NKD1 (11759106_at) / Fold change /veh NKD1 (11759106_at) / RFU SRD5A1 (11742802_a_at) / Fold change /veh SRD5A1 (11742802_a_at) / RFU TPSAB1 /// TPSB2 (11721975_s_at) / Fold change /veh TPSAB1 /// TPSB2 (11721975_s_at) / RFU GSTM3 (11746129_a_at) / Fold change /veh GSTM3 (11746129_a_at) / RFU IL23R (11737362_x_at) / Fold change /veh IL23R (11737362_x_at) / RFU TMEM51 (11727254_a_at) / Fold change /veh TMEM51 (11727254_a_at) / RFU PIWIL2 (11732686_x_at) / Fold change /veh PIWIL2 (11732686_x_at) / RFU ORM1 (11744905_x_at) / Fold change /veh ORM1 (11744905_x_at) / RFU CCDC152 (11743942_at) / Fold change /veh CCDC152 (11743942_at) / RFU ECM1 (11717891_a_at) / Fold change /veh ECM1 (11717891_a_at) / RFU IL23R (11748794_a_at) / Fold change /veh IL23R (11748794_a_at) / RFU TNFAIP8L3 (11732012_x_at) / Fold change /veh TNFAIP8L3 (11732012_x_at) / RFU MBOAT4 (11741988_at) / Fold change /veh MBOAT4 (11741988_at) / RFU 11764193_at / Fold change /veh 11764193_at / RFU TMEM53 (11763286_at) / Fold change /veh TMEM53 (11763286_at) / RFU MAGEB2 (11727129_at) / Fold change /veh MAGEB2 (11727129_at) / RFU TMEM200A (11744735_a_at) / Fold change /veh TMEM200A (11744735_a_at) / RFU CCDC152 (11751479_a_at) / Fold change /veh CCDC152 (11751479_a_at) / RFU FAM211A (11726209_a_at) / Fold change /veh FAM211A (11726209_a_at) / RFU RGS16 (11746705_a_at) / Fold change /veh RGS16 (11746705_a_at) / RFU VCAN (11755009_s_at) / Fold change /veh VCAN (11755009_s_at) / RFU RHOB (11743442_s_at) / Fold change /veh RHOB (11743442_s_at) / RFU RGS16 (11720943_a_at) / Fold change /veh RGS16 (11720943_a_at) / RFU RGS16 (11720944_at) / Fold change /veh RGS16 (11720944_at) / RFU, VPS4B / Fold change vs veh, VPS4B / RFU, CREB1 / Fold change vs veh, CREB1 / RFU, DNAJC13 / Fold change vs veh, DNAJC13 / RFU, GNAQ / Fold change vs veh, GNAQ / RFU, CDK5R1 / Fold change vs veh, CDK5R1 / RFU, ZRANB3 / Fold change vs veh, ZRANB3 / RFU, CUL4A / Fold change vs veh, CUL4A / RFU, CCNY / Fold change vs veh, CCNY / RFU, UFL1 / Fold change vs veh, UFL1 / RFU, COG3 / Fold change vs veh, COG3 / RFU, DIAPH2 / Fold change vs veh, DIAPH2 / RFU, SKA2 / Fold change vs veh, SKA2 / RFU, AFF3 / Fold change vs veh, AFF3 / RFU, LMF1 / Fold change vs veh, LMF1 / RFU, IPO11 / Fold change vs veh, IPO11 / RFU, DFFB / Fold change vs veh, DFFB / RFU, FOXP1 / Fold change vs veh, FOXP1 / RFU, CARD8 / Fold change vs veh, CARD8 / RFU, STRN3 / Fold change vs veh, STRN3 / RFU, ADK / Fold change vs veh, ADK / RFU, RASSF2 / Fold change vs veh, RASSF2 / RFU, WIPF1 / Fold change vs veh, WIPF1 / RFU, LARP1B / Fold change vs veh, LARP1B / RFU, RASA1 / Fold change vs veh, RASA1 / RFU, RB1 / Fold change vs veh, RB1 / RFU, PPFIA1 / Fold change vs veh, PPFIA1 / RFU, MAT2A / Fold change vs veh, MAT2A / RFU, CCT5 / Fold change vs veh, CCT5 / RFU, WDR92 / Fold change vs veh, WDR92 / RFU, CUX1 / Fold change vs veh, CUX1 / RFU, TTC7A / Fold change vs veh, TTC7A / RFU, TMEM135 / Fold change vs veh, TMEM135 / RFU, DEPTOR / Fold change vs veh, DEPTOR / RFU, CPM / Fold change vs veh, CPM / RFU, DNAJB6 / Fold change vs veh, DNAJB6 / RFU, CACNA2D3 / Fold change vs veh, CACNA2D3 / RFU, DTX4 / Fold change vs veh, DTX4 / RFU, TFCP2 / Fold change vs veh, TFCP2 / RFU, GMCL1 /// GMCL1P1 / Fold change vs veh, GMCL1 /// GMCL1P1 / RFU, AEBP2 / Fold change vs veh, AEBP2 / RFU, SNHG1 /// SNORD22 /// SNORD25 /// SNORD26 /// SNORD27 /// SNORD28 /// SNORD29 /// SNORD31 / Fold change vs veh, SNHG1 /// SNORD22 /// SNORD25 /// SNORD26 /// SNORD27 /// SNORD28 /// SNORD29 /// SNORD31 / Fold change (Aza/veh), C12orf56 (ProbeSet 11735607_a_at) / Fold change (ACY-1035/veh), C12orf56 (ProbeSet 11735607_a_at) / Fold change (Aza/veh), FGFR1OP (ProbeSet 11751329_s_at) / Fold change (ACY-1035/veh), FGFR1OP (ProbeSet 11751329_s_at) / Fold change (Aza/veh), VPS36 (ProbeSet 11739960_a_at) / Fold change (ACY-1035/veh), VPS36 (ProbeSet 11739960_a_at) / RFU SYPL1 (11715823_x_at) / Fold change /veh SYPL1 (11715823_x_at) / RFU IGFBP7 (11715501_s_at) / Fold change /veh IGFBP7 (11715501_s_at) / RFU REEP3 (11722064_at) / Fold change /veh REEP3 (11722064_at) / RFU IGLL1 (11728026_x_at) / Fold change /veh IGLL1 (11728026_x_at): dose or concentration left out as unconfirmed", "conditions": "MV-4-11 cells, 48 hours"}
{"molecule": "Nc1ncn([C@@H]2O[C@H](CO)[C@@H](O)[C@H]2O)c(=O)n1", "note": "[azacitidine]", "values": [{"measurement": "RFU JSRP1 (11732532_at)", "result": 47.93, "unit": "RFU"}]}
